# Measured values from ChEMBL document CHEMBL1128897, “Bivalent indoles exhibiting serotonergic binding affinity” (Bioorg Med Chem Lett, 1995).
# Legend:
# [1] = target: T1, 5-hydroxytryptamine receptor 1A (Rattus norvegicus, UniProt P19327); assay: Inhibitory activity against 5-hydroxytryptamine 1A receptor subtype
# T1 sequence (P19327 whole entry): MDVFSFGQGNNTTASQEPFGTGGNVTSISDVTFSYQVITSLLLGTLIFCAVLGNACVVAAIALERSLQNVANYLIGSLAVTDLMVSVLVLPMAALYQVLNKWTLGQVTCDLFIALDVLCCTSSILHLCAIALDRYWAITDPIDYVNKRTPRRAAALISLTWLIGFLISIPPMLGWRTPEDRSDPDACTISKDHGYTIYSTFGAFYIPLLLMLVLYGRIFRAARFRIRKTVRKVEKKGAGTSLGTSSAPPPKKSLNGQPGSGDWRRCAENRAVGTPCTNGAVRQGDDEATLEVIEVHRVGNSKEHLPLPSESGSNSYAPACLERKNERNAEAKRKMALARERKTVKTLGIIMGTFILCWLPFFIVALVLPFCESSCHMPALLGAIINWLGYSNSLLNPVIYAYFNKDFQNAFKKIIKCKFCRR
# [2] = target: 5-hydroxytryptamine receptor 1E (Homo sapiens, UniProt P28566); assay: Inhibitory activity against 5-hydroxytryptamine 1E receptor subtype
# [3] = target: Sodium-dependent serotonin transporter (Rattus norvegicus, UniProt P31652); assay: Ability to inhibit Serotonin transporter
# Sodium-dependent serotonin transporter, sequence (P31652 whole entry): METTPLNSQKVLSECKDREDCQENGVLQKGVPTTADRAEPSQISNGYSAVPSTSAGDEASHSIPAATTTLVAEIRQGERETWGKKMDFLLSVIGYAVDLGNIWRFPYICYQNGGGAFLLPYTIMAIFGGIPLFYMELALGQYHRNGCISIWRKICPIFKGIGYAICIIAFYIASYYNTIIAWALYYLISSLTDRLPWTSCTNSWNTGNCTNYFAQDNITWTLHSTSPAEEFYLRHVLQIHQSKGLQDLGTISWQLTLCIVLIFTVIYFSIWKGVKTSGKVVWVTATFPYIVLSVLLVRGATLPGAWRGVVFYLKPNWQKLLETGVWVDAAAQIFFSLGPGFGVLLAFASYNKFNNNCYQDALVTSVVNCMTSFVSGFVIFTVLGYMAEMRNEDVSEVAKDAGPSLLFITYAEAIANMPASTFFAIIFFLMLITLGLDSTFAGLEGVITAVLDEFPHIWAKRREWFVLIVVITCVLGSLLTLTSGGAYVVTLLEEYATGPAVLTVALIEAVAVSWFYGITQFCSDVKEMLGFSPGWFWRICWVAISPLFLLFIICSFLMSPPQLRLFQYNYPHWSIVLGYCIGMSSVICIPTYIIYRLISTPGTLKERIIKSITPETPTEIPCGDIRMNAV
# 5-hydroxytryptamine receptor 1E, sequence (P28566 whole entry): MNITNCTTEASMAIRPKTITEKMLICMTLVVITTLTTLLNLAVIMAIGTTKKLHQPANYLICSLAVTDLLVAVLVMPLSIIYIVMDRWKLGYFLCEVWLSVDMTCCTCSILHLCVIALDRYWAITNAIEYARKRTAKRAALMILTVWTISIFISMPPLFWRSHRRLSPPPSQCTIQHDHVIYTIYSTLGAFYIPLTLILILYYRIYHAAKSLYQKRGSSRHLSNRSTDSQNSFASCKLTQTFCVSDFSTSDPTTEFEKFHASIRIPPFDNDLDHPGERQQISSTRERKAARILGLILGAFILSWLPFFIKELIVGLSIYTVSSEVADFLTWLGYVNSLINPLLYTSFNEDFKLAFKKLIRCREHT
Compound,IC50 [1] [nM],IC50 [2] [nM],IC50 [3] [nM]
NC(=O)c1ccc2[nH]cc(C3=CCC(NCCCNC4CC=C(c5c[nH]c6ccc(C(N)=O)cc56)CC4)CC3)c2c1 (centres undefined),18,> 1000,
NC(=O)c1ccc2[nH]cc(C3=CCC(NCCCCCCCCNC4CC=C(c5c[nH]c6ccc(C(N)=O)cc56)CC4)CC3)c2c1 (centres undefined),2.13,392,12.4
NC(=O)c1ccc2[nH]cc(C3=CCC(NCCCCCNC4CC=C(c5c[nH]c6ccc(C(N)=O)cc56)CC4)CC3)c2c1 (centres undefined),2.86,> 1000,47.5
NC(=O)c1ccc2[nH]cc(C3=CCC(NCCCCCCCCCCNC4CC=C(c5c[nH]c6ccc(C(N)=O)cc56)CC4)CC3)c2c1 (centres undefined),0.22,> 1000,
NC(=O)c1ccc2[nH]cc(C3=CCC(NCCCCCCCCCCCCNC4CC=C(c5c[nH]c6ccc(C(N)=O)cc56)CC4)CC3)c2c1 (centres undefined),0.13,,
CCCCCCCNC1CC=C(c2c[nH]c3ccc(C(N)=O)cc23)CC1 (centres undefined),1.27,,
NC(=O)c1ccc2[nH]cc(C3=CCC(NCCCCNC4CC=C(c5c[nH]c6ccc(C(N)=O)cc56)CC4)CC3)c2c1 (centres undefined),14.5,> 1000,47.8
NC(=O)c1ccc2[nH]cc(C3=CCC(NCCNC4CC=C(c5c[nH]c6ccc(C(N)=O)cc56)CC4)CC3)c2c1 (centres undefined),2,> 1000,12.6
NC(=O)c1ccc2[nH]cc(C3=CCC(NCCCCCCNC4CC=C(c5c[nH]c6ccc(C(N)=O)cc56)CC4)CC3)c2c1 (centres undefined),2.27,> 1000,33.9
NC(=O)c1ccc2[nH]cc(C3=CCC(NCCCCCCCNC4CC=C(c5c[nH]c6ccc(C(N)=O)cc56)CC4)CC3)c2c1 (centres undefined),1.83,99,17.7
